Reference: patent publication US12403184B2, “Compositions and methods for treating neurodegenerative disroders” (priority 2018, dated 2025)
Where no end group is shown, it is not given here.

Legend:
ATAD3A [1] = molecular target: T1, ATAD3A (Mus musculus, UniProt Q925I1); experiment: ATAD3A dimerization by western blot, Neuro2A cells; format: cell-based; details: Neuro2A cells exposed to 3-NP (5 mM, 7 hours), DA1 1 μM overnight
T1 construct: endogenous in cells; host or cells: Neuro2A cells
T1 sequence (Q925I1 1-591): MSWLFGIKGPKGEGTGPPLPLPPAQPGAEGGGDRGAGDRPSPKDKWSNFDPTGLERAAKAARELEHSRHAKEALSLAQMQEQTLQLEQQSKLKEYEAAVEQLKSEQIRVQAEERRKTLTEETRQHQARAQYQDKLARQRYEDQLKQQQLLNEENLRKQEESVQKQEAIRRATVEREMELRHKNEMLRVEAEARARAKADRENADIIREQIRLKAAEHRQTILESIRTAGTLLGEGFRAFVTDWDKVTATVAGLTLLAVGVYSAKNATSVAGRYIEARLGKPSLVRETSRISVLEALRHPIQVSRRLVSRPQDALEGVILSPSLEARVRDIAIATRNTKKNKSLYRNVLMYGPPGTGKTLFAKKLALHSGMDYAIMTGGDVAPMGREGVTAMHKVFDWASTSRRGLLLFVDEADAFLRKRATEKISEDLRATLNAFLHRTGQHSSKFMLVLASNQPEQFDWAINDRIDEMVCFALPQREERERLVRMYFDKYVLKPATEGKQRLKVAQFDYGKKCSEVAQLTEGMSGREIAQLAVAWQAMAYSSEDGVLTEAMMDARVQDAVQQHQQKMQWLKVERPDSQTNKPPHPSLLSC
Experimental: (§1) To analyze dimerization of ATAD3A under non-reducing conditions, the cells or tissues were harvested and lysed with total lysates buffer. An equal amount of proteins was subject to 8% SDS-PAGE analysis in the presence or absence of β-mercaptoethanol (β-ME). For in vitro BMH crosslinking, the cell lysates were incubated with 1 mM BMH at r.t. for up to 25 min and quenched with 0.1% β-ME, followed by SDS-PAGE analysis. For in-vivo crosslinking, the cells were treated with cell-permeable crosslinker BMH (1 mM) for 20 min at 37° C. After crosslinking, the cells were quenched in PBS with 0.1% β-ME. For DSP crosslinking, the cells were treated with cell-permeable crosslinker for 5 min at 37° C., followed by quenching and washing with 10 mM Glycine in PBS. For formaldehyde (FA) crosslinking, the cells were incubated with PBS buffer containing 1% FA for 20 min at r.t., and the crosslinking reaction was terminated by washing in PBS containing 100 mM glycine. The cells were then lysed and subject to 8% SDS-PAGE analysis. For DTSSP crosslinking of proteins in mitochondrial fractions, isolated mitochondria samples were suspended in the mitochondrial lysis buffer (250 mM sucrose, 20 mM HEPES-NaOH, pH 7.5, 10 mM KCl, 1.5 mM MgCl2, 1 mM EDTA, 1 mM EGTA and protease inhibitor). An equal amount of crude mitochondria was incubated at 30° C. in the presence of 0.5 mM DTSSP. […]

ATAD3A [2] = molecular target: T2, ATAD3A (Homo sapiens, UniProt Q9NVI7, K135E); experiment: ATAD3A dimerization by western blot, HEK293 cells; format: cell-based
T2 construct: expressed in transfected cells; host or cells: HEK293 cells
T2 sequence (Q9NVI7 51-586 K135E limits assumed): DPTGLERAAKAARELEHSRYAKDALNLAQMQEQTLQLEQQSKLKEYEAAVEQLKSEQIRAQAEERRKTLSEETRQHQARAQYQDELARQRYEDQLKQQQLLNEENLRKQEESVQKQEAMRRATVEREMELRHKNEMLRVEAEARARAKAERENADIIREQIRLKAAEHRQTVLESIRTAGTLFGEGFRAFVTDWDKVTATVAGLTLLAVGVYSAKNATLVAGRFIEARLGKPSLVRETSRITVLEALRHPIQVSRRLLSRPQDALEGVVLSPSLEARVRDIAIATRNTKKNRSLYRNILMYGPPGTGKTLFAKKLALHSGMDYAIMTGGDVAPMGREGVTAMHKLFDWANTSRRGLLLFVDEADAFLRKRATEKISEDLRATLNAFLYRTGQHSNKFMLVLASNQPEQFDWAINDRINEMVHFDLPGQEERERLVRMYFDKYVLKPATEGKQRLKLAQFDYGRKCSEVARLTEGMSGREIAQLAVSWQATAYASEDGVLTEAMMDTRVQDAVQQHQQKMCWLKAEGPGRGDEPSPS
Text: Human ATAD3A was amplified from HEK293T cDNA samples through standard PCR methods, and then cloned into pCMV-Myc, pcDNA3.1 (+)-Flag, pEGFP-N1 vectors. ATAD3A truncated mutants were constructed using overlap cloning techniques. ATAD3A point mutant K358E, and K135 mutants (K135E, K135R, K135Q, and K135A) and S2S48 mutants were constructed by using QuickChange II Site-Directed Mutagenesis Kit (Agilent Technologies). Drp1 truncated mutants were described in our previous study. Cells were transfected with plasmids using TransIT®-2020 transfection reagent (Minis Bio LLC, Madison, WI) according to manufacturer's instruction.
as §1, with “DTSSP. The cross-linking was terminated by the addition of SDS loading buffer.” for “DTSSP.”

[3] = test system: mitochondrial fusion and fission-related proteins; experiment: Total protein levels of mitochondrial dynamics proteins by western blot; format: cell-based
Experimental: Protein concentration was measured by protein assay dye reagents (Bio-rad). The protein was resuspended in Laemmli buffer, loaded on SDS-PAGE, and transferred onto nitrocellulose membranes. Membranes were probed with the indicated antibodies, followed by visualization with ECL. Representative blots have been cropped for presentation.

HdhQ7 and HdhQ111 cells = experiment: Mitochondrial respiratory activity (Seahorse analyzer); format: cell-based, mouse
Experimental: Mitochondrial respiration activity in HdhQ7 and HdhQ111 cells was analyzed using a Seahorse Bioscience XFp Extracellular Flux Analyzer. The cells were seeded in XFp […] microplates at 6,000 cells per well in 50 μl of growth medium. One hour prior to measuring oxygen consumption, the cell culture media was replaced with XF assay medium and maintained in a non-CO2 incubator for 1 h. The sensor cartridges were placed in the XFp Analyzer according to the manufacturer's instructions for the Mito Stress Test kit. In brief, mitochondrial function was determined by the sequential injection of oligomycin A (2.5 μg/mL), FCCP (1 μM), and antimycin A (4 μM). Following each experiment, the total cellular number of each well was determined using DAPI staining.

[4] = 1 mg/kg/day, administered subcutaneously

**Q.** Which results are given for “YGRKKRRQRRRGGEDKRKT-NH2 [DA1, YGRKKRRQRRR-GG-EDKRKT-NH2]”?
**A.** dimerization of ATAD3A (ATAD3A [1]): abolished; dimerization of ATAD3A (ATAD3A [2]; HEK293 cells expressing ATAD3A acetyl-deficient mutant K135E): abolished; dimerization of ATAD3A (ATAD3A [2]; HEK293 cells expressing ATAD3A ΔN50 mutant, 1 μM for 48 h): abolished; dimerization of ATAD3A (ATAD3A [2]; normal cells or cells expressing ATAD3A wildtype): minor effect; other mitochondrial fusion and fission-related proteins (total protein levels) [3]: did not affect; mitochondrial respiratory activity (HdhQ7 and HdhQ111 cells; HdhQ7 cells): minor effects; ATP production (HdhQ7 and HdhQ111 cells; HdhQ111 cells): improved; maximal respiratory capacity (HdhQ7 and HdhQ111 cells; HdhQ111 cells): improved; spare respiratory capacity (HdhQ7 and HdhQ111 cells; HdhQ111 cells): improved; mitochondrial respiratory defects (HdhQ7 and HdhQ111 cells; HdhQ111 cells, 1 μM/day for 4 days): attenuated; brain entry [4]: entered the brain
